Values joined by “and” are separate entries in the source; they are usually repeats but may differ in a detail not shown here. Identical values can stand only once. Toxic doses and inconclusive results are not listed. Rule for the calls: active = survival T/C of 150% or more; inactive = T/C below 125% in these data.
System: CD2F1 mice, L1210 leukemia ip, survival T/C
Assay: NCI In Vivo Anticancer Drug Screen. Data for tumor model L1210 Leukemia (intraperitoneal) in CD2F1 (CDF1) mice
Settings: higher = longer survival
How it was run: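 Transplantable tumor in mice; compound-treated vs vehicle-treated groups. Read-out = treated/control ratio of the measured endpoint.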

[1] = endpoint: mean survival time, dose: 100.0 mg/kg/injection, schedule: Q01DX001 (ip), vehicle: saline with Tween-80

Measured: T/C

Cc1c(-c2ccc(-c3ccccc3F)cc2)nc2ccc(F)cc2c1C(=O)O
inactive: endpoint: median survival time, dose: 50.0 mg/kg/injection, schedule: Q01DX009 (ip), vehicle: water 108 % of control | endpoint: median survival time, dose: 66.7 mg/kg/injection, schedule: Q01DX009 (ip), vehicle: water 116 % of control | endpoint: median survival time, dose: 100.0 mg/kg/injection, schedule: Q01DX009 (ip), vehicle: water 93 % of control
active: endpoint: median survival time, dose: 5.2 mg/kg/injection, schedule: Q01DX009 (ip), vehicle: water 153 % of control | endpoint: median survival time, dose: 6.25 mg/kg/injection, schedule: Q01DX009 (ip), vehicle: water 165 % of control | endpoint: median survival time, dose: 8.6 mg/kg/injection, schedule: Q01DX009 (ip), vehicle: water 166 % of control | endpoint: median survival time, dose: 12.5 mg/kg/injection, schedule: Q01DX009 (ip), vehicle: water 168 % of control | endpoint: median survival time, dose: 14.4 mg/kg/injection, schedule: Q01DX009 (ip), vehicle: water 171 % of control | endpoint: median survival time, dose: 24.0 mg/kg/injection, schedule: Q01DX009 (ip), vehicle: water 172 % of control | endpoint: median survival time, dose: 25.0 mg/kg/injection, schedule: Q01DX009 (ip), vehicle: water 179 % of control | endpoint: median survival time, dose: 40.0 mg/kg/injection, schedule: Q01DX009 (ip), vehicle: water 175 % of control

Nc1cc2n[nH]nc2c(=O)[nH]1
inactive: endpoint: median survival time, dose: 50.0 mg/kg/injection, schedule: Q01DX005 (ip), vehicle: saline with Tween-80 107 % of control | endpoint: median survival time, dose: 100.0 mg/kg/injection, schedule: Q01DX005 (ip), vehicle: saline with Tween-80 101 % of control | endpoint: median survival time, dose: 200.0 mg/kg/injection, schedule: Q01DX005 (ip), vehicle: saline with Tween-80 100 % of control

O=C(O)CS(=O)(=O)CC(=O)O
inactive: endpoint: mean survival time, dose: 25.0 mg/kg/injection, schedule: Q01DX001 (ip), vehicle: saline with Tween-80 93 % of control | endpoint: mean survival time, dose: 50.0 mg/kg/injection, schedule: Q01DX001 (ip), vehicle: saline with Tween-80 104 % of control | endpoint: mean survival time, dose: 50.0 mg/kg/injection, schedule: Q01DX009 (ip), vehicle: saline 90 % of control | [1] 102 % of control | endpoint: mean survival time, dose: 100.0 mg/kg/injection, schedule: Q01DX009 (ip), vehicle: saline 89 % of control | endpoint: mean survival time, dose: 200.0 mg/kg/injection, schedule: Q01DX009 (ip), vehicle: saline 93 % of control

O=C1Nc2ccc([N+](=O)[O-])c3c([N+](=O)[O-])ccc1c23
inactive: endpoint: mean survival time, dose: 100.0 mg/kg/injection, schedule: Q04DX003 (ip), vehicle: saline with Tween-80 98 % of control | endpoint: mean survival time, dose: 200.0 mg/kg/injection, schedule: Q04DX003 (ip), vehicle: saline with Tween-80 97 % of control | endpoint: mean survival time, dose: 400.0 mg/kg/injection, schedule: Q04DX003 (ip), vehicle: saline with Tween-80 102 % of control

O=C(c1ccccc1)C1OC1(CCl)c1ccccc1 (centres undefined)
inactive: [1] 106 % of control | endpoint: mean survival time, dose: 200.0 mg/kg/injection, schedule: Q01DX001 (ip), vehicle: saline with Tween-80 90 % of control | endpoint: mean survival time, dose: 400.0 mg/kg/injection, schedule: Q01DX001 (ip), vehicle: saline with Tween-80 86 % of control

CCN=C(N)c1ncnnc1N
inactive: endpoint: mean survival time, dose: 100.0 mg/kg/injection, schedule: Q01DX001 (ip), vehicle: carboxymethylcellulose (CMC) 104 % of control | endpoint: mean survival time, dose: 200.0 mg/kg/injection, schedule: Q01DX001 (ip), vehicle: carboxymethylcellulose (CMC) 102 % of control | endpoint: mean survival time, dose: 400.0 mg/kg/injection, schedule: Q01DX001 (ip), vehicle: carboxymethylcellulose (CMC) 102 % of control

Nc1nc2ncc(CNc3ccc(C(=O)NC(CCC(=O)O)C(=O)O)cc3)nc2c(=O)[nH]1.[NH-]C1CCCCC1[NH-].[Pt+2] (centres undefined)
active: endpoint: median survival time, dose: 200.0 mg/kg/injection, schedule: Q04DX003 (ip), vehicle: saline 161 % of control
inactive: endpoint: median survival time, dose: 3.12 mg/kg/injection, schedule: Q04DX003 (ip), vehicle: saline 102 % of control and 104 % of control | endpoint: median survival time, dose: 6.25 mg/kg/injection, schedule: Q04DX003 (ip), vehicle: saline 107 % of control and 108 % of control | endpoint: median survival time, dose: 12.5 mg/kg/injection, schedule: Q04DX003 (ip), vehicle: saline 105 % of control | endpoint: median survival time, dose: 25.0 mg/kg/injection, schedule: Q04DX003 (ip), vehicle: saline 116 % of control and 108 % of control | endpoint: median survival time, dose: 50.0 mg/kg/injection, schedule: Q04DX003 (ip), vehicle: saline 114 % of control and 111 % of control | endpoint: median survival time, dose: 100.0 mg/kg/injection, schedule: Q04DX003 (ip), vehicle: saline 113 % of control and 115 % of control

Cc1c(N)nc([C@H](CC(N)=O)NC[C@H](N)C(N)=O)nc1C(=O)N[C@H](C(=O)N[C@H](C)[C@@H](O)[C@H](C)C(=O)N[C@H](C(=O)NCCc1nc(-c2nc(C(=O)NCCC[S+](C)C)cs2)cs1)[C@@H](C)O)C(OC1OC(CO)C(O)C(O)C1OC1OC(CO)C(O)C(OC(N)=O)C1O)c1cnc[nH]1 (some centres undefined)
inactive: endpoint: mean survival time, dose: 2.0 mg/kg/injection, schedule: Q01DX009 (ip), vehicle: saline 103 % of control and 106 % of control | endpoint: mean survival time, dose: 2.0 mg/kg/injection, schedule: Q01DX009 (ip), vehicle: water 106 % of control | endpoint: mean survival time, dose: 4.0 mg/kg/injection, schedule: Q01DX009 (ip), vehicle: water 110 % of control | endpoint: mean survival time, dose: 8.0 mg/kg/injection, schedule: Q01DX009 (ip), vehicle: water 110 % of control | endpoint: mean survival time, dose: 12.0 mg/kg/injection, schedule: Q01DX009 (ip), vehicle: saline 117 % of control | endpoint: mean survival time, dose: 16.0 mg/kg/injection, schedule: Q01DX009 (ip), vehicle: water 108 % of control | endpoint: mean survival time, dose: 32.0 mg/kg/injection, schedule: Q01DX009 (ip), vehicle: saline 115 % of control and 104 % of control | endpoint: mean survival time, dose: 32.0 mg/kg/injection, schedule: Q01DX009 (ip), vehicle: water 103 % of control | endpoint: mean survival time, dose: 64.0 mg/kg/injection, schedule: Q01DX009 (ip), vehicle: saline 104 % of control | endpoint: median survival time, dose: 0.5 mg/kg/injection, schedule: Q01DX009 (ip), vehicle: saline 88 % of control | endpoint: median survival time, dose: 0.5 mg/kg/injection, schedule: Q03HX024 (ip), vehicle: saline 105 % of control | endpoint: median survival time, dose: 1.0 mg/kg/injection, schedule: Q01DX009 (ip), vehicle: saline 100 % of control and 108 % of control | endpoint: median survival time, dose: 1.0 mg/kg/injection, schedule: Q03HX016 (ip), vehicle: saline 104 % of control | endpoint: median survival time, dose: 1.0 mg/kg/injection, schedule: Q03HX024 (ip), vehicle: saline 105 % of control | endpoint: median survival time, dose: 2.0 mg/kg/injection, schedule: Q03HX008 (ip), vehicle: saline 109 % of control | endpoint: median survival time, dose: 2.0 mg/kg/injection, schedule: Q03HX016 (ip), vehicle: saline 104 % of control | endpoint: median survival time, dose: 2.0 mg/kg/injection, schedule: Q03HX024 (ip), vehicle: saline 104 % of control | endpoint: median survival time, dose: 4.0 mg/kg/injection, schedule: Q03HX008 (ip), vehicle: saline 104 % of control | endpoint: median survival time, dose: 4.0 mg/kg/injection, schedule: Q03HX016 (ip), vehicle: saline 97 % of control | endpoint: median survival time, dose: 4.0 mg/kg/injection, schedule: Q03HX024 (ip), vehicle: saline 104 % of control | endpoint: median survival time, dose: 8.0 mg/kg/injection, schedule: Q03HX008 (ip), vehicle: saline 107 % of control | endpoint: median survival time, dose: 8.0 mg/kg/injection, schedule: Q03HX016 (ip), vehicle: saline 104 % of control | endpoint: median survival time, dose: 8.0 mg/kg/injection, schedule: Q04DX003 (ip), vehicle: saline 107 % of control | endpoint: median survival time, dose: 8.0 mg/kg/injection, schedule: Q08DX002 (ip), vehicle: saline 105 % of control | endpoint: median survival time, dose: 16.0 mg/kg/injection, schedule: Q01DX001 (ip), vehicle: saline 103 % of control | endpoint: median survival time, dose: 16.0 mg/kg/injection, schedule: Q03HX008 (ip), vehicle: saline 103 % of control | endpoint: median survival time, dose: 16.0 mg/kg/injection, schedule: Q03HX016 (ip), vehicle: saline 101 % of control | endpoint: median survival time, dose: 16.0 mg/kg/injection, schedule: Q04DX003 (ip), vehicle: saline 109 % of control | endpoint: median survival time, dose: 16.0 mg/kg/injection, schedule: Q08DX002 (ip), vehicle: saline 105 % of control | endpoint: median survival time, dose: 32.0 mg/kg/injection, schedule: Q01DX001 (ip), vehicle: saline 98 % of control | endpoint: median survival time, dose: 32.0 mg/kg/injection, schedule: Q04DX003 (ip), vehicle: saline 101 % of control | endpoint: median survival time, dose: 32.0 mg/kg/injection, schedule: Q08DX002 (ip), vehicle: saline 102 % of control | endpoint: median survival time, dose: 64.0 mg/kg/injection, schedule: Q01DX001 (ip), vehicle: saline 98 % of control | endpoint: median survival time, dose: 64.0 mg/kg/injection, schedule: Q04DX003 (ip), vehicle: saline 104 % of control | endpoint: median survival time, dose: 64.0 mg/kg/injection, schedule: Q08DX002 (ip), vehicle: saline 107 % of control | endpoint: median survival time, dose: 128.0 mg/kg/injection, schedule: Q01DX001 (ip), vehicle: saline 105 % of control | endpoint: median survival time, dose: 128.0 mg/kg/injection, schedule: Q04DX003 (ip), vehicle: saline 115 % of control | endpoint: median survival time, dose: 128.0 mg/kg/injection, schedule: Q08DX002 (ip), vehicle: saline 97 % of control | endpoint: median survival time, dose: 256.0 mg/kg/injection, schedule: Q01DX001 (ip), vehicle: saline 107 % of control

CN(C)N=Nc1ccccc1C(=O)NC#N
inactive: endpoint: mean survival time, dose: 9.38 mg/kg/injection, schedule: Q01DX009 (ip), vehicle: Klucel (hydroxypropylcellulose) (HPC) 101 % of control and 103 % of control and 104 % of control

COC(=O)C1(C)CCOC1=O (centres undefined)
inactive: endpoint: mean survival time, dose: 100.0 mg/kg/injection, schedule: Q04DX002 (ip), vehicle: saline 107 % of control | endpoint: mean survival time, dose: 200.0 mg/kg/injection, schedule: Q04DX002 (ip), vehicle: saline 98 % of control | endpoint: mean survival time, dose: 400.0 mg/kg/injection, schedule: Q04DX002 (ip), vehicle: saline 102 % of control

From PubChem BioAssay AID256 (DTP/NCI, 2004)
